Assay results from PMC3575809 (Nucleic Acids Research, 2012).

Experiments:
Mtb DnaG [1] = target: T1, Mtb DnaG (Mycobacterium tuberculosis, UniProt P9WNW1); format: biochemical; conditions: for signal change in HTS: 13 µM compound, not enzyme activation but phosphate from the compound
T1 sequence (P9WNW1 1-639): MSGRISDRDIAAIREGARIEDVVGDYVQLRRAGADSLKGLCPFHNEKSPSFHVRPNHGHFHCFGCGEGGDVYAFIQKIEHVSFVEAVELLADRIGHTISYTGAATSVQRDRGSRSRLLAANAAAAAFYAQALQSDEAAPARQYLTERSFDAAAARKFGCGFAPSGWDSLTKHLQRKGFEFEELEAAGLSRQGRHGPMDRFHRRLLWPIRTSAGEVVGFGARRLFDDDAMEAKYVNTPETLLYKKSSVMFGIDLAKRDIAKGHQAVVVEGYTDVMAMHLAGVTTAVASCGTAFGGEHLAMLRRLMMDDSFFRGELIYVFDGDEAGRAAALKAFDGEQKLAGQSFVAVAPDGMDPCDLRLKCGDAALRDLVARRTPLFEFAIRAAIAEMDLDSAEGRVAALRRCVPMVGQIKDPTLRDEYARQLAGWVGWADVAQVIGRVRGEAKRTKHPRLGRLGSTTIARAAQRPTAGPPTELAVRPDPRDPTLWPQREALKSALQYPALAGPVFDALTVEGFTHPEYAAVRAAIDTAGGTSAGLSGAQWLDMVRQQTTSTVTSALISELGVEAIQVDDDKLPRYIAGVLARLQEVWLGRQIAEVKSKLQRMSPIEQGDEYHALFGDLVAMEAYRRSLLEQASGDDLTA

Mtb DnaG [2] = target: T1, Mtb DnaG; experiment: Mode of inhibition assays; format: biochemical; conditions: for mode of inhibition: Lineweaver–Burk plots, varied NTP and DNA; for n, number of inhibitor molecules bound: alternative model with high cooperativity; for n, number of binding sites on Mtb DnaG: global fit, non-cooperative model
Mtb DnaG [3] = target: T1, Mtb DnaG; format: biochemical; conditions: 10 µM inhibitor (Figure 3); gel, Figures 3 and 9
Mtb DnaG [4] = target: T1, Mtb DnaG; experiment: Dose–response coupled primase–pyrophosphatase assay; conditions: for Hill coefficient: dose–response fit, 1.25 µM DNA, 110 µM NTP, 0.5 µM Mtb DnaG
human DNA polymerase α = conditions: cited from earlier work
human primase = conditions: cited from earlier work
Mtb DnaG (DNA primase) = target: T2, Mtb DnaG (DNA primase) (Mycobacterium tuberculosis H37Rv, UniProt P9WNW1 1-639); experiment: fluorescence anisotropy
T2 sequence: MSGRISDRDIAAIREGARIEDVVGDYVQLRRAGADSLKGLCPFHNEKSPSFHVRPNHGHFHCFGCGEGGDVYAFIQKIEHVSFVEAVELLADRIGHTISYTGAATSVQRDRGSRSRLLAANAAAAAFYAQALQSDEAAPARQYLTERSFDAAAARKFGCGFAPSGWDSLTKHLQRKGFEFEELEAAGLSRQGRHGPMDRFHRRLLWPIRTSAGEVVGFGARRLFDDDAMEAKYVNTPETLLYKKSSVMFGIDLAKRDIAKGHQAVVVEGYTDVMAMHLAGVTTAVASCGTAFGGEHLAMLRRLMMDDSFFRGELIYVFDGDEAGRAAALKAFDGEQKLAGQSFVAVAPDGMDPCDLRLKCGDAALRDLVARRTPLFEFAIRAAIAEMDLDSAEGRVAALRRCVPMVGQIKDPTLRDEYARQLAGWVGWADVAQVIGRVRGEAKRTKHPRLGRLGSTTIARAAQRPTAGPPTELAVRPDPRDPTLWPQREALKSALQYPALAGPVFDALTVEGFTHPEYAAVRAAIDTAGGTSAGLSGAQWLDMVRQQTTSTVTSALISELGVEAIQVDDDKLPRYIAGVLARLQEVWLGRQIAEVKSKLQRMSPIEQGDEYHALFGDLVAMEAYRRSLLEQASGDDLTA

For O=C(O)CN(CCN(CC(=O)O)CC(=O)O)CC(=O)O [EDTA, ethylenediaminetetraacetic acid], the “inhibition by positive control in HTS” value (Mtb DnaG [1]) was “full inhibition”.

With CC(C)N(CCC(C(N)=O)(c1ccccc1)c1ccccn1)C(C)C (stereo not shown) [disopyramide phosphate] the “signal change in HTS” value (Mtb DnaG [1]) was “increase in absorbance”.

With COc1cccc2c1C(=O)c1c(O)c3c(c(O)c1C2=O)C[C@@](O)(C(=O)CO)C[C@@H]3O[C@H]1C[C@H](N)[C@H](O)[C@H](C)O1 [doxorubicin] the Ki (Mtb DnaG [2]) was 2.5 ± 0.5 µM, the mode of inhibition (Mtb DnaG [2]) was “competitive inhibitors with respect to both NTP and DNA” and the “n, number of inhibitor molecules bound” value (Mtb DnaG [2]) was 2. The “n, number of binding sites on Mtb DnaG” value (Mtb DnaG [2]) was 3, the “effect on synthesis of radioactively labelled RNA products” value (Mtb DnaG [3]) was “potent Mtb DnaG inhibitors” and the IC50 (Mtb DnaG [4]) was 7.7 ± 0.5 µM. The Hill coefficient (Mtb DnaG [4]) was 2.0 ± 0.2.

O=c1oc2c(O)c(O)cc3c(=O)oc4c(O)c(O)cc1c4c23 [ellagic acid] gave an IC50 (Mtb DnaG [4]) of 22 ± 3 µM.

With O=C(O)c1ccccc1OP(=O)(O)O [fosfosal] the “signal change in HTS” value (Mtb DnaG [1]) was “increase in absorbance”.

With CO[C@H]1C[C@H](O[C@H]2[C@H](C)[C@@H](O[C@@H]3O[C@H](C)C[C@H](N(C)C)[C@H]3O)[C@@H](C)C[C@@]3(CO3)C(=O)[C@H](C)[C@@H](O)[C@@H](C)[C@@H](C)OC(=O)[C@@H]2C)O[C@@H](C)[C@@H]1O [oleandomycin phosphate] the “signal change in HTS” value (Mtb DnaG [1]) was “increase in absorbance”.

In the case of Cc1ccc(C(=O)Nc2ccc(S(=O)(=O)O)c3cc(S(=O)(=O)O)cc(S(=O)(=O)O)c23)cc1NC(=O)c1cccc(NC(=O)Nc2cccc(C(=O)Nc3cc(C(=O)Nc4ccc(S(=O)(=O)O)c5cc(S(=O)(=O)O)cc(S(=O)(=O)O)c45)ccc3C)c2)c1 [suramin], the Ki (Mtb DnaG [2]) is reported as 3.2 ± 0.5 µM, the mode of inhibition (Mtb DnaG [2]) is reported as “competitive inhibitors with respect to both NTP and DNA” and the “n, number of inhibitor molecules bound” value (Mtb DnaG [2]) is reported as 3. For the same molecule, the “n, number of binding sites on Mtb DnaG” value (Mtb DnaG [2]) was 4, the “effect on synthesis of radioactively labelled RNA products” value (Mtb DnaG [3]) was “potent Mtb DnaG inhibitors” and the mode of inhibition (human DNA polymerase α) was “DNA- and NTP-competitive inhibitor of human DNA polymerase α and primase, respectively”. The mode of inhibition (human primase) was “DNA- and NTP-competitive inhibitor of human DNA polymerase α and primase, respectively”, the IC50 (Mtb DnaG [4]) was 6.3 ± 0.2 µM and the Hill coefficient (Mtb DnaG [4]) was 2.9 ± 0.1.

Work on CCGAATCAGTCCGACGACGCATCAGCAC (ssDNA) [28-mer ssDNA] yielded a Kd (Mtb DnaG (DNA primase)) of 0.036 ± 0.016 µM.
